Reference: publication PMC6001238, “Iterative Chemical Engineering of Vancomycin Leads to Novel Vancomycin Analogs With a High in Vitro Therapeutic Index” (Frontiers in Microbiology, 2018)
In brackets after ≈: the same amount, converted by molar mass. Like-named read-outs stand apart in the source and are kept apart here.

How the values were obtained:
E. coli XL-1 blue MRF' = test: MIC, broth microdilution, E. coli XL-1 blue MRF'; type: cell-based, Escherichia coli; settings: E. coli XL-1 blue MRF'; for MICvanc/MICi: ratio of MIC of vancomycin and MIC of analogue
Method: (§1) The minimum inhibitory concentration (MIC) was determined using the broth microdilution method according to the antimicrobial susceptibility testing standards of the clinical and laboratory standards institute ([Clinical and Laboratory Standards Institute [CLSI], 2012]). Ultrapure water and non-inoculated broth were used as controls. In one case, a final concentration of 10 μM vancomycin was included with the vancomycin analog or control antibiotic.

[1] = tested on: Murine leukemia (L1210) cells; test: Cytostatic activity, L1210 cell proliferation; type: cell-based; settings: mean ± SD of three experiments; highest concentration tested 250 µM; 2 days; read-out: Toxicity (IC50) L1210
Outline: (§2)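 Readout: Coulter cell number after drug exposure at 37°C. Durations differ by line (L1210 2 days; CEM 3 days; HeLa 4 days). Stock suspension 300,000–500,000 cells/mL, diluted by mixing with compound. Endpoint: IC50 vs negative control.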

MRSA KS6 = test: MIC, broth microdilution, MRSA KS6; type: cell-based, Staphylococcus aureus; settings: for MIC-fold improvement vs. vancomycin: MRSA KS6, ratio of MIC of vancomycin and MIC of analogue; for MIC: Staphylococcus aureus MRSA KS6, read-out: MIC
Outline: (§3)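 Susceptibility was scored by broth microdilution (CLSI). In one instance each vancomycin analog or control antibiotic was tested in the presence of vancomycin, 10 μM final, and ultrapure water plus non-inoculated broth were included as controls.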

[2] = tested on: L1210, CEM and HeLa cell lines; test: Cytostatic activity, average or summary over L1210, CEM and HeLa; type: cell-based; settings: average of L1210, CEM and HeLa; read-out: Toxicity (IC50) Average
Outline: as §2

[3] = tested on: human cervix carcinoma (HeLa) cells; test: Cytostatic activity, HeLa cell proliferation; type: cell-based; settings: mean ± SD of three experiments; highest concentration tested 250 µM; 4 days; read-out: Toxicity (IC50) HeLa
Outline: as §2

[4] = tested on: S. aureus VSSA (ATCC 6538); test: MIC, broth microdilution, vancomycin-sensitive S. aureus (VSSA/MSSA, ATCC 6538); type: cell-based, Staphylococcus aureus; settings: for MIC: Staphylococcus aureus VSSA, read-out: MIC; for MIC-fold improvement vs. vancomycin: VSSA, ratio of MIC of vancomycin and MIC of analogue
Outline: as §3

MRSA KS89 = test: MIC, broth microdilution, MRSA KS89; type: cell-based, Staphylococcus aureus; settings: for MIC-fold improvement vs. vancomycin: MRSA KS8, ratio of MIC of vancomycin and MIC of analogue; for MIC: Staphylococcus aureus MRSA KS8, read-out: MIC
Outline: as §3

B. subtilis PSB3 = test: MIC, broth microdilution, B. subtilis PSB3; type: cell-based, Bacillus subtilis; settings: for MICvanc/MICi: ratio of MIC of vancomycin and MIC of analogue
Method: as §1

E. faecalis VRE 6 = test: MIC, broth microdilution, vancomycin-resistant E. faecalis VRE 6 (VanA); type: cell-based, Enterococcus faecalis; settings: for MICvanc/MICi / MIC-fold improvement vs. vancomycin: ratio of MIC of vancomycin and MIC of analogue; for MIC: read-out: MIC; for MIC-fold improvement vs. vancomycin: VRE 6
Outline: as §3

S. aureus VRSA = test: MIC, broth microdilution, vancomycin-resistant S. aureus (VRSA); type: cell-based, Staphylococcus aureus; settings: for MIC: Staphylococcus aureus VRSA, read-out: MIC; for MIC-fold improvement vs. vancomycin: VRSA, ratio of MIC of vancomycin and MIC of analogue
Outline: as §3

E. faecalis VRE 29 = test: MIC, broth microdilution, vancomycin-resistant E. faecalis VRE 29 (VanA); type: cell-based, Enterococcus faecalis; settings: for MIC: Enterococcus faecalis VRE 29 (vancomycin-resistant), read-out: MIC; for MIC-fold improvement vs. vancomycin: VRE 29, ratio of MIC of vancomycin and MIC of analogue
Outline: as §3

E. faecalis VRE 53 = test: MIC, broth microdilution, vancomycin-resistant E. faecalis VRE 53 (VanA); type: cell-based, Enterococcus faecalis; settings: for MICvanc/MICi / MIC-fold improvement vs. vancomycin: ratio of MIC of vancomycin and MIC of analogue; for MIC: read-out: MIC; for MIC-fold improvement vs. vancomycin: VRE 53
Outline: as §3

[5] = tested on: human T-lymphocyte (CEM) cells; test: Cytostatic activity, CEM cell proliferation; type: cell-based; settings: mean ± SD of three experiments; highest concentration tested 250 µM; 3 days; read-out: Toxicity (IC50) CEM
Outline: as §2

S. aureus VISA/HIP5827 = test: MIC, broth microdilution, vancomycin-intermediate S. aureus VISA HIP5827; type: cell-based, Staphylococcus aureus; settings: for MIC: Staphylococcus aureus VISA/HIP5827, read-out: MIC; for MIC-fold improvement vs. vancomycin: VISA/HIP5827, ratio of MIC of vancomycin and MIC of analogue
Outline: as §3

MRSA KS1 = test: MIC, broth microdilution, MRSA KS1; type: cell-based, Staphylococcus aureus; settings: for MIC-fold improvement vs. vancomycin: MRSA KS1, ratio of MIC of vancomycin and MIC of analogue; for MIC: Staphylococcus aureus MRSA KS1, read-out: MIC
Outline: as §3

MRSA KS2 = test: MIC, broth microdilution, MRSA KS2; type: cell-based, Staphylococcus aureus; settings: for MIC-fold improvement vs. vancomycin: MRSA KS2, ratio of MIC of vancomycin and MIC of analogue; for MIC: Staphylococcus aureus MRSA KS2, read-out: MIC
Outline: as §3

E. faecalis VSE 1 = test: MIC, broth microdilution, vancomycin-sensitive E. faecalis (VSE 1); type: cell-based, Enterococcus faecalis; settings: for MICvanc/MICi / MIC-fold improvement vs. vancomycin: ratio of MIC of vancomycin and MIC of analogue; for MIC: read-out: MIC; for MIC-fold improvement vs. vancomycin: VSE 1
Outline: as §3

E. faecalis VRE 37 = test: MIC, broth microdilution, vancomycin-resistant E. faecalis VRE 37 (VanA); type: cell-based, Enterococcus faecalis; settings: Enterococcus faecalis VRE 37 (vancomycin-resistant); read-out: MIC
Outline: as §3

[6] = tested on: Clostridium difficile AIU ribotype 027; test: MIC, plate drop assay, C. difficile AIU ribotype 027; type: cell-based; settings: C. difficile AIU ribotype 027
Outline: (§4)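 Twofold dilution series of test compounds were spotted onto C. difficile lawns in 0.4% BHI agar containing added calcium and magnesium salts. After overnight anaerobic incubation at 37°C, growth inhibition was scored by spot clearing; triplicate runs, ultrapure water negative control.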

[7] = tested on: Clostridium difficile ATJ ribotype 014/20; test: MIC, plate drop assay, C. difficile ATJ ribotype 014/20; type: cell-based
Outline: as §4

[8] = Enterococcus faecalis VRE 6 (vancomycin-resistant)
[9] = Enterococcus faecalis VRE 53 (vancomycin-resistant)
[10] = Enterococcus faecalis VSE 1 (vancomycin-sensitive)

Row | SMILES | MIC (E. coli XL-1 blue MRF') [µM] | MICvanc/MICi (E. coli XL-1 blue MRF') | IC50 [1] [µM] | MIC-fold improvement vs. vancomycin (MRSA KS6) | MIC (MRSA KS6) [µM] | IC50 [2] [µM] | IC50 [3] [µM] | MIC [4] [µM] | MIC-fold improvement vs. vancomycin [4] | MIC-fold improvement vs. vancomycin (MRSA KS89) | MIC (MRSA KS89) [µM] | MIC (B. subtilis PSB3) [µM] | MICvanc/MICi (B. subtilis PSB3) | MICvanc/MICi (E. faecalis VRE 6; E. faecalis VRE 6) | MIC (E. faecalis VRE 6; E. faecalis VRE 6) [µM] | MIC (E. faecalis VRE 6; [8]) [µM] | MIC-fold improvement vs. vancomycin (E. faecalis VRE 6) | MIC (S. aureus VRSA) [µM] | MIC-fold improvement vs. vancomycin (S. aureus VRSA) | MIC (E. faecalis VRE 29) [µM] | also measured
1 | C#Cc1ccc2cc(C(=O)NCCCNC(=O)[C@H]3NC(=O)[C@H]4NC(=O)[C@H](NC(=O)[C@@H]5NC(=O)[C@H](CC(N)=O)NC(=O)[C@H](NC(=O)[C@@H](CC(C)C)NC)[C@H](O)c6ccc(c(Cl)c6)Oc6cc5cc(c6O[C@@H]5O[C@H](CO)[C@@H](O)[C@H](O)[C@H]5O[C@H]5C[C@](C)(N)[C@H](O)[C@H](C)O5)Oc5ccc(cc5Cl)[C@H]4O)c4ccc(O)c(c4)-c4c(O)cc(O)cc43)ccc2c1 [Vanc-T] | 25 (≈ 42.1 µg/mL) | 4 | 77 ± 17 | 2 | 0.39 (≈ 0.657 µg/mL) | 71 | 75 ± 20 | 0.10 (≈ 0.168 µg/mL) | 8 | 4 | 0.20 (≈ 0.337 µg/mL) | 0.39 (≈ 0.657 µg/mL) | 1 | 64 | 3.13 (≈ 5.27 µg/mL) | 3.13 (≈ 5.27 µg/mL) | 64 | 1.56 (≈ 2.63 µg/mL) | 64 | 12.5 (≈ 21 µg/mL) | MIC-fold improvement vs. vancomycin (E. faecalis VRE 29): 32; MICvanc/MICi (E. faecalis VRE 53; E. faecalis VRE 53): 128; MIC (E. faecalis VRE 53; E. faecalis VRE 53): 3.13 µM (≈ 5.27 µg/mL); MIC (E. faecalis VRE 53; [9]): 3.13 µM (≈ 5.27 µg/mL); MIC-fold improvement vs. vancomycin (E. faecalis VRE 53): 128; IC50 [5]: 60 ± 10 µM; MIC (S. aureus VISA/HIP5827): 1.56 µM (≈ 2.63 µg/mL); MIC-fold improvement vs. vancomycin (S. aureus VISA/HIP5827): 4; MIC-fold improvement vs. vancomycin (MRSA KS1): 4; MIC (MRSA KS1): 0.20 µM (≈ 0.337 µg/mL); MIC-fold improvement vs. vancomycin (MRSA KS2): 4; MIC (MRSA KS2): 0.20 µM (≈ 0.337 µg/mL); MICvanc/MICi (E. faecalis VSE 1; E. faecalis VSE 1): 32; MIC (E. faecalis VSE 1; E. faecalis VSE 1): 0.05 µM (≈ 0.0842 µg/mL); MIC (E. faecalis VSE 1; [10]): 0.05 µM (≈ 0.0842 µg/mL); MIC-fold improvement vs. vancomycin (E. faecalis VSE 1): 32; MIC (E. faecalis VRE 37): 25 µM (≈ 42.1 µg/mL)
2 | C#CCNC(=O)[C@H]1NC(=O)[C@H]2NC(=O)[C@H](NC(=O)[C@@H]3NC(=O)[C@H](CC(N)=O)NC(=O)[C@H](NC(=O)[C@@H](CC(C)C)NC)[C@H](O)c4ccc(c(Cl)c4)Oc4cc3cc(c4O[C@@H]3O[C@H](CO)[C@@H](O)[C@H](O)[C@H]3O[C@H]3C[C@](C)(N)[C@H](O)[C@H](C)O3)Oc3ccc(cc3Cl)[C@H]2O)c2ccc(O)c(c2)-c2c(O)cc(O)cc21 [Vanc-G] | 12.5 (≈ 18.6 µg/mL) | 8 | – | – | – | – | – | – | – | – | – | 0.78 (≈ 1.16 µg/mL) | 0.5 | 2 | 100 (≈ 149 µg/mL) | – | – | – | – | – | MICvanc/MICi (E. faecalis VRE 53; E. faecalis VRE 53): 8; MIC (E. faecalis VRE 53; E. faecalis VRE 53): 50 µM (≈ 74.3 µg/mL); MICvanc/MICi (E. faecalis VSE 1; E. faecalis VSE 1): 4; MIC (E. faecalis VSE 1; E. faecalis VSE 1): 0.39 µM (≈ 0.58 µg/mL)
3 | CNC(CC(C)C)C(=O)NC1C(=O)NC(CC(N)=O)C(=O)NC2C(=O)NC3C(=O)NC(C(=O)NC(C(=O)NCCNC(=O)C=Cc4ccccc4)c4cc(O)cc(O)c4-c4cc3ccc4O)C(O)c3ccc(c(Cl)c3)Oc3cc2cc(c3OC2OC(CO)C(O)C(O)C2OC2CC(C)(N)C(O)C(C)O2)Oc2ccc(cc2Cl)C1O (centres unmarked) [Vanc-21] | – | – | > 250 | 1 | 0.78 (≈ 1.26 µg/mL) | > 250 | > 250 | 0.78 (≈ 1.26 µg/mL) | 1 | 1 | 0.78 (≈ 1.26 µg/mL) | – | – | – | – | 1.56 (≈ 2.53 µg/mL) | 128 | 1.56 (≈ 2.53 µg/mL) | 64 | 12.5 (≈ 20.3 µg/mL) | MIC-fold improvement vs. vancomycin [6]: 4; MIC-fold improvement vs. vancomycin (E. faecalis VRE 29): 32; MIC (E. faecalis VRE 53; [9]): 12.5 µM (≈ 20.3 µg/mL); MIC-fold improvement vs. vancomycin (E. faecalis VRE 53): 32; IC50 [5]: > 250 µM; MIC (S. aureus VISA/HIP5827): 0.78 µM (≈ 1.26 µg/mL); MIC-fold improvement vs. vancomycin (S. aureus VISA/HIP5827): 8; MIC-fold improvement vs. vancomycin ([7]; C. difficile ATJ ribotype 014/20): <1.4; MIC ([7]; C. difficile ATJ ribotype 014/20, plate drop assay): >25 µM; MIC-fold improvement vs. vancomycin (MRSA KS1): 1; MIC (MRSA KS1): 0.78 µM (≈ 1.26 µg/mL); MIC-fold improvement vs. vancomycin (MRSA KS2): 2; MIC (MRSA KS2): 0.39 µM (≈ 0.632 µg/mL); MIC (E. faecalis VSE 1; [10]): 0.39 µM (≈ 0.632 µg/mL); MIC-fold improvement vs. vancomycin (E. faecalis VSE 1): 4; MIC (E. faecalis VRE 37): 12.5 µM (≈ 20.3 µg/mL)
